In US8093288B2, “Genipin derivatives and uses thereof” (Beth Israel Deaconess Medical Center, priority 2003, dated 2012):

Assays:
Type in all cases: cell-based
isolated thymocytes = assay: Proton leak in isolated thymocytes
Text: (§1) It has been shown that addition of high levels of superoxide to isolated mitochondrial stimulates proton leak if UCP1, UCP2 or UCP3 (collectively “UCPs”) are present.

[1] = test system: thymocytes that are deficient in UCP2; assay: Proton leak in thymocytes deficient in UCP2
Text: as §1

isolated islets = assay: ATP levels and insulin secretion in isolated islets
Text: as §1

UCP2 deficient islets = assay: ATP levels and insulin secretion in UCP2 deficient islets
Text: as §1

[2] = test system: pancreatic islets from wildtype mice; assay: Insulin secretion in isolated pancreatic islets from wildtype mice; conditions: 5.5 mM glucose; 5 μM D1; 37° C. for 60 min; WT islets; FIG. 11C
Procedure: As used or herein, pancreatic islets from wildtype and UCP2 knockout mice were isolated according to a method used for rats (Cawthorn and Chan, Mol. Cell. Endocrinol. 1991, 75:197-204, the entire teachings of which are incorporated herein by reference), except that the total exposure to type XI collagenase (Worthington Biochemical Co., NJ) was 30 min. and the Ficoll gradient was altered to layers of 25%, 23%, 21%, and 11%. Islets were harvested from the 11%-21% interface.
Islets were cultured in RPMI medium containing 11.0 mM glucose and supplemented with 1% penicillin-streptomycin. 7.5% fetal bovine serum (all from Gibco/BRL, Burlington, ON), and 10 mM Hepes (Sigma). After culturing for 20-24 hr, the islets were transferred to microcentrifuge tubes, pelleted (800 g for 5 min), and the medium aspirated and replaced with 1.0 mL DME medium containing 1% gelatin and 5.5 mM glucose with no genipin (control), 50 nM genipin, 0.5 μM genipin, and 5 μM genipin. For insulin secretion studies, the three islets were incubated per tube. After incubation at 37° C. for 60 min., the islets were centrifuged. The supernatant was collected and stored at −80° C., and then later assayed for insulin using Rat Insulin ELISA Kit (Cat. No. INSKR020, Crystal Chem., Inc., Chicago, Ill.).
FIGS. 11B and 11C show their effects on insulin secretion. Pancreatic islets were isolated from WT or UCP2 knockout (KO) mice. […]

Row | SMILES | proton leak (isolated thymocytes) | proton leak [1] | ATP levels (isolated islets) | insulin secretion (isolated islets) | ATP levels and insulin secretion (UCP2 deficient islets) | insulin secretion [2]
1 | O=C(O)c1ccc(/C2=C3\C=CC(=N3)/C(c3ccc(C(=O)O)cc3)=c3/cc/c4[n]3[Mn]([Cl])[n]3c2ccc3/C(c2ccc(C(=O)O)cc2)=C2/C=CC(=N2)\C=4c2ccc(C(=O)O)cc2)cc1 [MnTBAP] | decreases proton leak | not present | increased ATP levels | increased insulin secretion | absent | –
2 | COC(=O)C1=CO[C@@H]2OC[C@@]3(O)[C@@H]2[C@@H]1C[C@H]3Cl [compound 55] | – | – | – | – | – | increases insulin secretion in WT islets
